In patent US9694040B2, “Hydrogenation of cannabis oil” (priority 2015, dated 2017):

Tested on: U87 (Human glioblastoma)
Test: U87 glioblastoma subcutaneous xenograft tumor growth, excised tumor weight
Assay type: in vivo
Conditions: for effect on tumor weight versus untreated vehicle: female athymic mice with U87 implants, 10 mg/kg body weight fed, compared with Vehicle 73.8 mg; for Tumor weight: female athymic mice, subcutaneous U87 implants (two per mouse), fed 10 mg/kg body weight, tumors excised and weighed at termination (about one week of treatment), average of six tumors, Vehicle 73.8 mg
Description: The effect of the hydrogenated and non-hydrogenated cannabis oil on tumor growth and angiogenesis were evaluated by implanting U87 (Human glioblastoma) 3×10^6 cells (50% matrigel) in […] female athymic mice. The site of implantation was subcutaneous with two implants per mouse. The date of implantation was Feb. 1, 2016 and the date of administering treatment was Feburary 3, 2016. There were three mice in each of the following groups, and the treatment consisted of feeding each of the three mice 10 mg/kg body weight of the treatment corresponding to each one of the following groups: • 1. Untreated Vehicle • 2. THCA • 3. CBDA • 4. HCBDA • 5. HTHCA
The termination date was Feb. 11, 2016. On this date, the tumors were excised and weighed. The results are shown in Table 1 and illustrated in the below plot.
It was assumed that the excised tumor weight for the “Untreated Vehicle” was essentially equivalent to its starting tumor weight.

SMILES	effect on tumor weight versus untreated vehicle	Tumor weight
C=C(C)[C@@H]1CCC(C)=C[C@H]1c1c(O)cc(CCCCC)c(C(=O)O)c1O [CBDA, Δ-9-cannabidiolic acid]	effective to reduce tumor weight	39.1 mg
CCCCCc1cc2c(c(O)c1C(=O)O)[C@@H]1C=C(C)CC[C@H]1C(C)(C)O2 [THCA, Δ-9-tetrahydrocannabinoic acid]	effective to reduce tumor weight	46.0 mg
CCCCCc1cc2c(c(O)c1C(=O)O)[C@@H]1CC(C)CC[C@H]1C(C)(C)O2 (some centres unmarked) [HTHCA, hydrogenated 9-tetrahydrocannabinoic acid]	effective to reduce tumor weight	44.5 mg
CCCCCc1cc(O)c([C@@H]2CC(C)CC[C@H]2C(C)C)c(O)c1C(=O)O (some centres unmarked) [HCBDA, hydrogenated 9-cannabidioc acid]	effective to reduce tumor weight	32.6 mg
